Reference: US20210137935A1, “CORTICOTROPIN RELEASING FACTOR RECEPTOR ANTAGONISTS” (Spruce Biosciences, Inc., priority 2017, published 2021)
Converted amounts (≈) assume the structure as drawn.

How the values were obtained:
[1] = Phase 1 safety and tolerability (Study 1 and Study 2); type: in vivo, human; settings: healthy subjects
Source text: (§1) Study 1 was the first-in-human study that investigated the safety, tolerability, and PK of single-escalating doses of Compound 1, given orally, to healthy adult subjects. […] The data from this study were used for the selection of doses for Study 2.
(§2) The 2-part multiple-dose study, Study 2, determined the safety and tolerability of repeated daily doses of Compound 1 and investigated the effects on biomarkers of relevance for the treatment of alcohol dependence.
The safety of Compound 1 was evaluated in 2 Phase 1 studies in healthy adult volunteers (Study 1 and Study 2). In both studies, adverse events (AEs), clinical laboratory tests, vital signs (supine blood pressure and pulse rate), and electrocardiograms (ECGs) were evaluated. Overall, in Study 1, Compound 1 was well-tolerated.

17-OHP = assay: Phase 2 study in adults with classic CAH: 17-OHP; type: in vivo, human; settings: patients with classic CAH
Source text: (§3) Cohort A of the Phase 2 Study includes a 6-week, multiple-dose, dose escalation study of Compound 1 for the treatment of adults with classic CAH. After screening, eligible patients will be enrolled into a 6-week treatment period followed by a 4-week washout/safety follow-up period.
(§4) This cohort will be conducted in approximately 9 patients, who will receive Compound 1 daily for up to 6 weeks. Compound 1 will be administered as an oral daily dose. Patients will undergo titration of Compound 1 through three escalating dosage strengths at 2-week intervals. Patients will have overnight PK/PD assessments performed at baseline, which include an pre-dose overnight assessment and a post-dose overnight assessment for PK/PD following administration of the first dose. At the end of each 2-week dosing period, patients will return for single overnight visits for steady-state PK/PD assessments. A follow-up outpatient visit will occur 30 days after their last dose. Upon completion of the initial cohort (Cohort A), the study will proceed to a multiple ascending dose (MAD) design with up to 3 sequential cohorts (Cohorts B, C, and D) to further evaluate the safety, PK, and PD of various SPR001 dosing regimens and to identify an optimal dose regimen. Each cohort will undergo a 2-week run-in period, a 2-week treatment period, and a 30-day washout and safety follow-up period. During the run-in period, which will occur during screening, subjects will document in a paper diary each dose of glucocorticoid medication taken, the time of each meal, and the time they went to bed and woke up each day, to ensure compliance with background glucocorticoid regimens and the stability of their daily routine.
• 1. To evaluate the safety of Compound 1 in subjects with CAH. • 2. To assess the efficacy of Compound 1 in subjects with classic CAH as measured by percent and absolute change in 17-OHP compared to baseline.
This allows for steroid taper. […] 50% of subjects were within the guideline range (1200 ng/dL) after treatment.

[2] = Study 1: single-escalating oral dose pharmacokinetics in healthy adult subjects; type: in vivo, human; settings: for Cmax / AUC0-tlast / AUC0-∞ / CL/F / t1/2: geometric mean
Protocol: as §1
In Study 1, Compound 1 was administered to healthy adult subjects as a single PO dose of 2, 10, 50, 150, 400, or 800 mg in the fed state and 150 mg in the fasted state. Absorption occurred moderately late, achieving peak Cmax between 4 to 6 hours following dosing in the fed state.
When Compound 1 was given in the fed state, median time to reach maximum plasma concentration (Tmax) occurred between 4 and 6 hours.
As part of this single-dose escalation study, a food effect PK investigation was performed to examine Compound 1 exposures in both the fed and fasted states at the 150-mg dose level. A total of 6 subjects were administered 150 mg Compound 1 in each of these 2 dosing groups. Of these 6 subjects, 4 subjects received Compound 1 at the same dose in both fed and fasted states. […] Table 6 provides a summary of the PK parameters at the 150-mg dose level under both fed and fasted state conditions.
PK parameters AUC0-∞ and Cmax were analyzed separately for dose proportionality for Compound 1 from 50 to 800 mg when administered in the fed state. […] Dose proportionality across administered doses in the fed state could not be concluded on the basis of AUC0-∞ or Cmax.

ACTH = assay: Phase 2 study in adults with classic CAH: ACTH; type: in vivo, human; settings: patients with classic CAH
Source text: as §3, §4
(§5) • 3. To explore the dose(s) of Compound 1 that cause pharmacodynamics changes in plasma concentrations of ACTH, androstenedione, and testosterone, as measured by the absolute and percent change from baseline by dose. • 4. To determine pharmacokinetics of Compound 1 in subjects with CAH. • 5. To explore potential relationships between pharmacodynamics and pharmacokinetics. […]

[3] = Study 2 Part A: multiple-dose (14 days) pharmacokinetics in healthy adult volunteers; type: in vivo, human; settings: for Cmax: fed; for Effective t1/2: half-life calculated by accumulation ratio; for Tmax: median; for WT-norm Claa/F: weight normalized
Protocol: as §2
PK were also evaluated in the multiple-dose, dose-escalation study, Study 2. In Part A of the study, subjects were divided into 3 cohorts and received 50, 150, or 200 mg Compound 1 or placebo for 14 consecutive days (at least 6 subjects received Compound 1 and 2 subjects received placebo in each cohort). […] All dosing occurred in the fed state. An assessment of diurnal cortisol levels, plus when under conditions of glucose clamp, were also carried out both prior to and during the dosing period.
Consistent with the single-dose study (Study 1), concentrations appeared to decline in a bi-exponential manner, characterized by a rapid decrease within the first 24 hours. […] The Tmax appeared to be consistent across doses. Overall half-lives, weight normalized CL/F and V/F were consistent for 150 and 200 mg. However, the values for these latter 2 parameters were almost doubled at the 50-mg dose level. Variability (CV %) for apparent clearance and volume of distribution were large and not reduced with weight-normalization.
Table 8 presents the results of the dose proportionality assessment for the AUC0-24 and Cmax over the tested dose range.

[4] = Phase 2 study in adults with classic CAH: safety; type: in vivo, human; settings: patients with CAH, 5-fold range of doses
Source text: as §3
as §4, with “Each cohort will undergo a 2-week run-in period, a 2-week treatment period, and a 30-day washout and safety follow-up period. During the run-in period, which will occur during screening, subjects will document in a paper diary each dose of glucocorticoid medication taken, the time of each meal, and the time they went to bed and woke up each day, to ensure compliance with background glucocorticoid regimens and the stability of their daily routine.” left out
• 1. […] To assess the efficacy of Compound 1 in subjects with classic CAH as measured by percent and absolute change in 17-OHP compared to baseline. […]

[5] = Solubility in different aqueous media (24 hour at room temperature); type: physicochemical
Androstenedione = assay: Phase 2 study in adults with classic CAH: Androstenedione; type: in vivo, human; settings: patients with classic CAH
Source text: as §3, §4, §5

[6] = single oral dose 150 mg, fasted
[7] = 50 mg daily, Day 14, geometric mean
[8] = 150 mg daily, Day 14, geometric mean
[9] = 200 mg daily, Day 14, geometric mean

## CCC(CC)c1cc(C)nc2c(-c3sc(N4CCOCC4)nc3Cl)c(C)nn12 [Compound 1, 3-(4-Chloro-2-(morpholin-4-yl)thiazol-5-yl)-7-(1-ethylpropyl)-2,5-dimethylpyrazolo(1,5-a)pyrimidine]
[1]; Study 1, single oral doses up to 800 mg
  tolerability: well-tolerated
[1]; Study 2, multiple doses up to 200 mg
  tolerability: generally well tolerated
17-OHP
  subjects with more than 25% reduction in 17-OHP: 50%
  subjects with reduction in 17-OHP: 80%
  subjects within the guideline range (1200 ng/dL) of 17-OHP after treatment: 50%
[2]; 50 to 800 mg, fed state
  increase of AUC0-∞ for every doubling of dose, relative to dose proportionality: 1.74 times
[2]; 150-mg dose, fed vs fasted
  mean AUC0-∞, fed state relative to fasted state: approximately 3 fold
  mean Cmax, fed state relative to fasted state: ~11 fold
[2]; human, plasma, single PO dose, fed and fasted state, overall range, read-out: half-life (t1/2), range
  half-life: 11 to 101 h
[2]; human, plasma, single oral dose 150 mg, fasted state, range, read-out: Tmax, range
  Tmax: 6 to 12 h
[2]; single oral dose 2 mg, fed, median
  Tmax: 6.00 h
[2]; single oral dose 2 mg, fed, plasma
  Cmax: 0.867 ng/mL
[2]; single oral dose 10 mg, fed, median
  Tmax: 4.00 h
[2]; single oral dose 10 mg, fed, plasma
  Cmax: 3.01 ng/mL
[2]; single oral dose 50 mg, fed
  AUC0-tlast: 152 ng·h/mL
  AUC0-∞: 165 ng·h/mL
  CL/F: 302 L/h
  t1/2: 31 h
[2]; single oral dose 50 mg, fed, median
  Tmax: 4.00 h
[2]; single oral dose 50 mg, fed, plasma
  Cmax: 19.5 ng/mL
[2]; [6]
  AUC0-tlast: 288 ng·h/mL
  AUC0-∞: 331 ng·h/mL
  CL/F: 454 L/h
  t1/2: 38.4 h
[2]; single oral dose 150 mg, fasted, median
  Tmax: 10.05 h
[2]; single oral dose 150 mg, fasted, plasma
  Cmax: 8.22 ng/mL
[2]; single oral dose 150 mg, fed
  AUC0-tlast: 891 ng·h/mL
  AUC0-∞: 956 ng·h/mL
  CL/F: 157 L/h
  t1/2: 29.2 h
[2]; single oral dose 150 mg, fed, median
  Tmax: 4.00 h
[2]; single oral dose 150 mg, fed, plasma
  Cmax: 93.4 ng/mL
[2]; single oral dose 400 mg, fed
  AUC0-tlast: 2300 ng·h/mL
  AUC0-∞: 2580 ng·h/mL
  CL/F: 155 L/h
  t1/2: 44.2 h
[2]; single oral dose 400 mg, fed, median
  Tmax: 4.00 h
[2]; single oral dose 400 mg, fed, plasma
  Cmax: 207 ng/mL
[2]; single oral dose 800 mg, fed
  AUC0-tlast: 4390 ng·h/mL
  AUC0-∞: 4850 ng·h/mL
  CL/F: 165 L/h
  t1/2: 41.9 h
[2]; single oral dose 800 mg, fed, median
  Tmax: 6.00 h
[2]; single oral dose 800 mg, fed, plasma
  Cmax: 382 ng/mL
ACTH
  subjects in the normal range (ACTH) after treatment: 40%
  subjects with more than 25% reduction in ACTH: 70%
  subjects with reduction in ACTH: 80%
[3]; [7]
  Cmax: 50.3 ng/mL
  AUC0-24 h: 273 ng·h/mL
  AUC0-∞: 980 ng·h/mL
  CLaa/F: 183 L/h
  Cavg: 11.4 ng/mL
  Effective t1/2: 37.7 h
  WT-norm Claa/F: 48 mL/min/kg
[3]; 50 mg daily, Day 14
  Tmax: 5.00 h
[3]; 50 mg daily, geometric mean
  RA (accumulation ratio, Day 14 AUC0-24/Day 1 AUC0-24): 2.80
[3]; 50 mg, Day 1, geometric mean
  Cmax: 22.7 ng/mL
  AUC0-24 h: 97.6 ng·h/mL
[3]; 50 mg, Day 1
  Tmax: 4.52 h
[3]; [8]
  Cmax: 222 ng/mL
  AUC0-24 h: 1480 ng·h/mL
  AUC0-∞: 4680 ng·h/mL
  CLaa/F: 101 L/h
  Cavg: 61.7 ng/mL
  Effective t1/2: 32.7 h
  WT-norm Claa/F: 23.7 mL/min/kg
[3]; 150 mg daily, Day 14
  Tmax: 5.00 h
[3]; 150 mg daily, geometric mean
  RA (accumulation ratio, Day 14 AUC0-24/Day 1 AUC0-24): 2.51
[3]; 150 mg, Day 1, geometric mean
  Cmax: 127 ng/mL
  AUC0-24 h: 590 ng·h/mL
[3]; 150 mg, Day 1
  Tmax: 5.00 h
[3]; [9]
  Cmax: 314 ng/mL
  AUC0-24 h: 2040 ng·h/mL
  AUC0-∞: 5660 ng·h/mL
  CLaa/F: 98 L/h
  Cavg: 85.0 ng/mL
  Effective t1/2: 52.0 h
  WT-norm Claa/F: 25 mL/min/kg
[3]; 200 mg daily, Day 14
  Tmax: 5.00 h
[3]; 200 mg daily, geometric mean
  RA (accumulation ratio, Day 14 AUC0-24/Day 1 AUC0-24): 3.65
[3]; 200 mg, Day 1, geometric mean
  Cmax: 143 ng/mL
  AUC0-24 h: 559 ng·h/mL
[3]; 200 mg, Day 1
  Tmax: 5.00 h
[3]; human, plasma, oral, 50 mg daily, Day 14, geometric mean, read-out: Vz/F
  Vd/F at 14 days: 33500 L
[4]
  tolerability: generally well-tolerated
[5]; 0.001N HCl, equilibrium pH 3.36
  Solubility Description: Insoluble
[5]; 0.01N HCl, equilibrium pH 2.06
  Solubility Description: Insoluble
[5]; 0.1N HCl, equilibrium pH 1.06
  Solubility Description: insoluble
[5]; 0.1N NaOH, equilibrium pH 11.65
  Solubility Description: Insoluble
[5]; FaSSIF, equilibrium pH 5.16
  Solubility Description: insoluble
[5]; FaSSIF, equilibrium pH 6.73
  Solubility Description: Insoluble
[5]; SGF, equilibrium pH 2.25
  Solubility Description: Insoluble
[5]; Water, equilibrium pH 7.78
  Solubility Description: insoluble
[5]; pH 4.5 Acetate (USP), equilibrium pH 4.65
  Solubility Description: Insoluble
[5]; pH 6.0 Phosphate (USP), equilibrium pH 6.08
  Solubility Description: Insoluble
[5]; pH 7.5 Phosphate (USP), equilibrium pH 7.57
  Solubility Description: Insoluble
[5]; pH 7.5 Phosphate (USP), equilibrium pH 7.57, n = 2, 24 hour, room temperature
  Solubility: 0.6 µg/mL (≈ 1.43 µM)
[5]; water, thermodynamic from solid
  solubility at 24 h: < 2 µg/mL
Androstenedione
  subjects with more than 25% reduction in Androstenedione: 60%
  subjects within normal reference range (Androstenedione) after treatment: 50%
Androstenedione; at various doses
  subjects with reduction in Androstenedione: 100%
